According to patent US9012439B2, “Use of electrophilic compounds for inducing platelet production or maintaining platelet function” (University of Rochester, priority 2007, dated 2015):

What was measured:
[1] = test system: Meg-01-derived platelets; assay: Collagen-induced shape change of Meg-01-derived platelets; format: cell-based, human; conditions: platelets from Meg-01 cells treated 10 μM for 24 h; collagen 10 μg/mL, 15 min
Experimental: (§1) Platelets were isolated from the Meg-01 cells and human blood as described above. Both normal human platelets and Meg-01-derived platelets were stained with annexin V-FITC then treated with 10 μg/ml of collagen for 15 min. Cells were analyzed for collagen-induced annexin V binding and change in size and shape by flow cytometry. Platelets were isolated from primary human megakaryocytes and primary mouse megakaryocytes as described above. Primary human platelets were stained with CD41-FITC and primary mouse platelets were stained with CD61-PE then treated with 10 μg/mL of collagen. Cells were analyzed for collagen-induced CD61/CD41 upregulation and change in size and shape using flow cytometry.

[2] = test system: primary mouse megakaryocytes; assay: Platelet production from cultured mouse bone marrow megakaryocytes; format: cell-based, mouse (C57BL/6)
Experimental: Bone marrow was isolated from the femora of male C57BL/6 mice (Jackson Laboratories, Bar Harbor, Me.) and plated at a concentration of 1×10^6 cells per well in 12-well plates in IMDM (Iscove's Modified Dulbecco's Media, Invitrogen) with 20% BIT 9500 (BSA, insulin, transferrin) and supplemented with 100 ng/mL of rhTPO. Cells were cultured for 5 days, following which 15d-PGJ2 (10 μM) was added to the culture medium for 24 h. On the sixth day, cells were examined by phase-contrast microscopy using an inverted microscope (Olympus IX81) and images were captured using SPOT RT software (New Hyde Park, N.Y.). Megakaryocytes were identified by preincubating with anti-mouse CD16/32 (FcγR-blocking antibody) and then incubating with PE-conjugated hamster anti-mouse CD41 antibody.
Platelets were isolated from megakaryocytes by centrifugation at 150 xg for 10 min. Supernatants underwent sequential centrifugation (500 xg for 10 min and 1000×g for 10 min). The remaining platelet pellet was fixed then permeabilized with a CD61 or CD41 antibody. 7-AAD (BD Pharmingen) was added for 10 min before analyzing the cells by flow cytometry. […]

[3] = test system: mouse bone marrow culture-derived platelets; assay: Function of mouse bone marrow culture-derived platelets (collagen response, spreading on fibrinogen); format: cell-based, mouse (C57BL/6)
Experimental: as §1
(§2) Coverslips were coated with 100 μg/mL of fibrinogen for 1 h and blocked with 0.5 mg/mL BSA for 1 h. Platelets were added to the fibrinogen-coated coverslips in Tyrode's buffer and fixed with glutaraldehyde, post-fixed with 1% osmium tetroxide, and dehydrated. Platelets were then coated with a gold/palladium film. Images were acquired using the Zeiss-Leo 982 FE-SEM (scanning electron microscope).

[4] = test system: human culture-derived platelets; assay: Function of human culture-derived platelets (collagen response, spreading on fibrinogen); format: cell-based
Experimental: as §1, §2

[5] = test system: Meg-01 cells; assay: Reactive oxygen species production in Meg-01 cells (carboxy-H2DCFDA, MitoSOX Red); format: cell-based, human; conditions: for percentage of Meg-01 cells that produce mitochondrial superoxide (MitoSOX Red): 10 μM
Experimental: Ten μM carboxy-H2DCFDA was added to cells for 20 min at RT. The cells were washed and immediately analyzed by flow cytometry. Five μM of MitoSOX Red dye in HBSS containing Mg^2+ and Ca^2+ was added to the cells for 15 min at 37° C. The cells were washed in HBSS and analyzed by flow cytometry.

[6] = test system: C57BL/6 mice; assay: Irradiation-induced thrombocytopenia (5 Gy total body irradiation); format: in vivo, mouse (C57BL/6)
Experimental: Seven or 8-week-old male C57BL/6 mice (Jackson Laboratories) were either exposed to 5 Gy cesium (Cs^137) total body irradiation (TBI) using a Model 8114 6000 Curie Shepherd Cs^137 irradiator (approximately 3200 Curie sealed Cs^137 source) with a dose rate of […] or left unexposed. Mice (n=4) received intravenous injections of vehicle (8% DMSO) or 15d-PGJ2 (1 mg/kg) or CDDO-Me (250 μg/kg) for 4 consecutive days from day 1 (days 1, 2, 3 and 4 post-irradiation). Blood was obtained from the aorta or the orbital sinus. Platelets were counted prior to radiation exposure and after radiation exposure on day 10, day 22, and day 31 in Example 7, or days 4, 10, 16, and 21 in Example 9 using the Heska® CBC-Diff™ Veterinary Analyzer (Fort Collins, Colo.). Data are expressed as average platelet counts from two separate experiments. For the unirradiated mice, platelets were counted on day 4, day 10, and day 15 in Example 7 or on the same days in Example 9.

[7] = test system: Meg-01 cells; assay: Active-caspase protein in Meg-01 cells; format: cell-based, human; conditions: Meg-01 cells in the presence of 15d-PGJ2

CCCCCC=CC=C1C(=O)C=C[C@@H]1CC=CCCCC(=O)O [15d-PGJ2, 15-deoxy-Δ^12,14 prostaglandin J2]
platelets that decreased their size and increased their granularity in response to collagen [1]: 68%
increase in percentage of CD61+ platelets in culture ([2]; mouse bone marrow cultured 5 days with rhTPO, then 10 μM for 24 h): ~14%
megakaryocyte surface morphology ([2]; mouse megakaryocytes, 10 μM, 24 h, microscopy): induced the appearance of ruffled edges on the megakaryocytes
platelet spreading on fibrinogen ([3]; mouse bone marrow culture-derived platelets, fibrinogen coated slide): spread in response to fibrinogen
geometric mean fluorescence intensity of surface CD41, after collagen treatment ([3]; platelets from mouse bone marrow cultures treated with 15d-PGJ2, collagen 10 μg/mL, 15 min): 20
geometric mean fluorescence intensity of surface CD41, before collagen ([3]; platelets from mouse bone marrow cultures treated with 15d-PGJ2, no collagen): 9
platelet spreading on fibrinogen ([4]; human culture-derived platelets, fibrinogen coated slide): spread in response to fibrinogen
geometric mean fluorescence intensity of surface CD61, after collagen treatment ([4]; platelets from CD61+ cell cultures treated with 15d-PGJ2, collagen 10 μg/mL, 15 min): 20
geometric mean fluorescence intensity of surface CD61, before collagen ([4]; platelets from CD61+ cell cultures treated with 15d-PGJ2, no collagen): 5
percentage of Meg-01 cells that produce mitochondrial superoxide (MitoSOX Red) ([5]; 1 h): 43%
percentage of Meg-01 cells that produce mitochondrial superoxide (MitoSOX Red) ([5]; 6 h): 31%
percentage of Meg-01 cells that express ROS (carboxy-H2DCFDA) ([5]; 1 h): 91%
percentage of Meg-01 cells that express ROS (carboxy-H2DCFDA) ([5]; 6 h): 97%
weight versus vehicle-treated mice ([6]; 1 mg/kg IV for 4 consecutive days): no differences in weight
platelet numbers ([6]; 5 Gy, 1 mg/kg IV days 1-4, by day 31): approximately 800,000 /μL
platelet recovery compared to vehicle mice ([6]; 5 Gy, 1 mg/kg IV days 1-4, day 22 and day 31): accelerated platelet recovery
active-caspase protein [7]: upregulated active-caspase protein
